Results from patent US6372791B1, “Method of promoting skin cell metabolism” (Johnson & Johnson Consumer Companies, Inc., priority 2000, dated 2002).

System: primary normal human dermal fibroblasts (NHDF)
Experiment: Energy production (metabolic activity) by alamarBlue REDOX indicator fluorescence
Format: cell-based
Conditions: NHDF in DMEM prepared with Evian mineral water; 10 mM of each agent; 3-hour incubation, then alamarBlue 1 hour; fluorescence ex 530 nm/em 590 nm; n=8
Experimental: The effects of L-carnitine and sodium pyruvate, in mineral water, on energy production were evaluated in primary normal human dermal fibroblasts (adult). Energy production in the cell is assessed using the REDOX sensitive indicator alamarBlue™ (Alamar Biosciences, Sacramento, Calif.). The native, oxidized form of alamarBlue™ is taken up readily by cells and reduced intracellularly by the mitochondrial electron transport chain, resulting in a shift in its absorbance and fluorescence. Normal human dermal fibroblasts (NHDF), obtained from Clonetics (Biowhittaker Inc., Walkersville, Md.), were cultured in Clonetics FGM2 medium and grown to confluence in 96-well plates (Costar, Cambridge, Mass.). Culture medium was then replaced with DMEM (Life Technologies, Rockville, Md.) prepared with Evian® mineral water. After 72 hours cells were treated with 10 mM L-carnitine (Biosint USA, Larchmont, N.Y.), 10 mM sodium pyruvate (American International Chemical Inc., Natick, Mass.) or 10 mM L-carnitine in combination with 10 mM sodium pyruvate. At the end of a 3-hour incubation period, alamarBlue™ was added to each well and the plates returned to the incubator. After 1 hour the fluorescence was measured using a CytoFluor® Fluorescence Plate Reader (PerSeptive Biosystems, Framingham, Mass.) set with the following filter-combination: excitation at 530 nm and emission at 590 nm.

Row | Compound | increase in metabolic activity
1 | C[N+](C)(C)C[C@H](O)CC(=O)[O-] [carntine, L-carnitine] | 6.05%
2 | CC(=O)C(=O)[O-].[Na+] [sodium pyruvate] | 2.16%
